# From article PMC10518255, “A first-in-class pan-lysyl oxidase inhibitor impairs stromal remodeling and enhances gemcitabine response and survival in pancreatic cancer” (Nature Cancer, 2023)
# Several values for one entry are separate records, joined by “and”; a condition that tells them apart may be missing. Equal entries are not always repeated.
# Tested on: KPC CCs
# Assay: Cancer cell invasion into CAF-remodeled 3D organotypic matrices
# Assay type: cell-based, mouse
# Conditions: for number of cancer cells invaded per FOV: single replicates
# Method: Fig. 3 PXS-5505 inhibition of CAF remodeling in vitro. a, Quantitative PCR with reverse transcription (qRT–PCR) showing in vitro comparison of KPC CAF relative expression of lysyl oxidase family members compared to KPC CCs from the same model (n = 3 biologically independent samples). Comparisons were determined by 2^–∆∆Ct approach. b, Representative images of 3D organotypic matrix contraction assay at days 2, 6 and 12 in the absence (gray) or presence (pink) of PXS-5505 (30 µM). Scale bars, 5 mm. Comparison of measured area of matrices between control and PXS-5505 treatment groups over time (n = 3 technical samples examined over three biologically independent samples). Data are mean ± s.d. c, Concentration of immature divalent DHLNL and mature trivalent Pyr collagen crosslinks determined by LC–MS from control and PXS-5505-treated organotypic matrices at day 12 (n = 3 technical samples examined over two biologically independent samples). Data are mean ± s.d. […] Data are presented as mean ± s.d. […] Comparison of number of CCs invaded per field of view (FOV) as determined by H&E and PanCK staining (nine images taken from three technical samples from each of three biologically independent contracted matrices), normalized to control. Data are mean ± s.d. Scale bars, 100 μm. […] Source data
# Following remodeling, 4 × 10^4 KPC CCs were seeded on top of the remodeled matrix in DMEM supplemented with 10% FBS and 1% penicillin–streptomycin and allowed to grow to confluence for 4 days, after which matrices were transferred to an air–liquid interface and CCs allowed to invade into the organotypic matrices for 12 days (Extended Data Fig. 4f). PXS-5505 (30 μM) or PXS-5120 (100 nM) was added to medium at 48-h intervals for the duration. At the end point, matrices were fixed in 10% formalin and processed for histological analysis by H&E and panCK staining. The invasive index was measured in three representative areas per matrix and the number of invaded cells per mm^2 was calculated. No statistical methods were used to predetermine sample sizes but our sample sizes are similar to those reported in previous publications[36],[39].
# Extended Data Fig. 4 PXS-5505 inhibits collagen cross-linking by PDAC CAFs in vitro resulting in decreased cancer cell invasion. a. Schematic of organotypic matrix remodeling assay whereby CAFs are embedded into a 3D collagen matrix and growth media supplemented with or without PXS-5505 to inhibit lysyl oxidase family activity b. Chemical structures of lysyl oxidase family catalyzed hydroxyallysine or allysine residues and the subsequent divalent and trivalent bonds that are formed that can be quantified by mass spectrometry. c. Representative images of 3D organotypic matrix contraction by human pancreatic cancer CAFs at days 2, 6 and 12 in the absence (gray) and presence (pink) of PXS-5505 (30 µM). Scale bars = 5 mm. […] Data presented as mean values +/− SD. d. […] Data presented as mean values +/− SD. Relative fold expression of LOXL family members compared to LOX were determined by 2^–∆∆Ct approach. f. […] Comparison of measured area of matrices between control, PXS-5120 and PXS-5505 treatment groups (n = 3) over time. i. […] Representative images of invasion of KPC cancer cells into a contracted organotypic matrix as determined by H&E staining. […]
compound,measurement,setting,value
"Cl.Cl.NC/C=C(\F)CS(=O)(=O)c1cccc2cccnc12.O [PXS-5505, (Z)-3-fluoro-4-(quinolin-8-ylsulfonyl)but-2-en-1-amine dihydrochloride monohydrate]",depth of invasion,PXS-5505 30 µM,no significant difference in depth of invasion
same,invasion into the organotypic matrices by CCs,PXS-5505 30 µM,decrease in invasion
same,number of cancer cells invaded per FOV,determined by H&E,0.4375 and 0.5681 and 0.5386 and 0.8338 and 0.9078 and 0.6013 and 0.6222 and 0.3197 and 1.014
same,number of cancer cells invaded per FOV,determined by PanCK,0.6309 and 0.4054 and 0.3571 and 0.6771 and 0.6115 and 1.118 and 0.7087 and 0.8827 and 0.7763
